# Test results taken from patent US7888337B2 (priority 2007, dated 2011).
# “And” between values parts separate entries of the source, which are not always exact repeats. Identical values can stand only once. Like-named read-outs stand apart in the source and are kept apart here. Marks after values point to notes of the source that are not given here.
# Key:
# [1] = system: NIBRG-14 (H5N1) influenza A virus; set-up: species or system mice; conditions: mouse, in vivo
# [2] = system: flu (A/WSN/1933) infection, H1N1; assay: microbe, parasite or virus in culture; format: cell-based, influenza A/WSN/1933 (H1N1)
# [3] = molecular target: NA from influenza virus A/Hanoi/30408/2005 (H5N1) (Influenza A virus (A/Hanoi/30408/2005(H5N1)), UniProt Q3C1C4); assay: biochemical
# in vitro = conditions: dog
# [4] = system: influenza A [A/WSN/33 (H1N1)] virus; set-up: species or system mice; conditions: mouse, in vivo; for efficacy at lower concentrations in comparison to compounds 3 and 13b: 0.01 mg/kg/day
# [5] = system: A/WSN/33 (H1N1) influenza virus; conditions: mouse, in vivo
# [6] = molecular target: Neuraminidase (NA) from influenza virus A/WSN/1933 (H1N1) (Influenza A virus, UniProt P03470); assay: biochemical; format: biochemical
# Neuraminidase (NA) from influenza virus A/WSN/1933 (H1N1), sequence (P03470 whole entry, looked up): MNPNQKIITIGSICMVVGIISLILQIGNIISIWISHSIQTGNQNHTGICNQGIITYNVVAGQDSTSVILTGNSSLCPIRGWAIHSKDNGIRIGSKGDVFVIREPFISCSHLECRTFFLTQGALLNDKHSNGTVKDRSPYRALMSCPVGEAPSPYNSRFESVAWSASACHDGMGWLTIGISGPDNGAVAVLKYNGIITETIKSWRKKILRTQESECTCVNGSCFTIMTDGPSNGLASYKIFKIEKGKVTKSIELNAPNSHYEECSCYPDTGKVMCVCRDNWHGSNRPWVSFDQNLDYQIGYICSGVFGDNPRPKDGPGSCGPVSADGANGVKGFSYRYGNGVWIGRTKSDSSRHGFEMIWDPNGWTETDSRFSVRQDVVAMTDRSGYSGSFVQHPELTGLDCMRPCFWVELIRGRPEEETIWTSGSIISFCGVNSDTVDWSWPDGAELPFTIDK
smiles,measurement,setting,value
"CCOC(=O)C1=C[C@@H](OC(CC)CC)[C@H](NC(C)=O)[C@@H](N)C1 [Compound 1, Ethyl (3R,4R,5S)-4-acetamido-5-amino-3-(1-ethylpropoxy)-1-cyclohexene-1-carboxylate phosphate, reference compound]","% Survivors, day 7",[1]; phosphate,10 (100)^b % and 0 (40)^b % and 0 (0)^b %
same,"% Survivors, day 14",[1]; phosphate,10 (100)^b % and 0 (40)^b % and 0 (0)^b %
same,Mean day to death,[1]; phosphate,9.4 days and 7.6 days and 5.3 days
"CCC(CC)O[C@@H]1C=C(C(=O)O)C[C@H](N)[C@H]1NC(C)=O [Compound 2, (3R,4R,5S)-4-Acetamido-5-amino-3-(1-ethylpropoxy)-1-cyclohexene-1-carboxylic acid, reference compound]",EC50,[2]; read-out: EC50,31.3 nM
same,IC50,[3],62.9 nM
same,CC50,in vitro,> 100000 nM
"CCC(CC)O[C@@H]1C=C(P(=O)(O)O)C[C@H](N)[C@H]1NC(C)=O [Compound 3, Ammonium (3R,4R,5S)-4-acetamido-5-amino-3-(1-ethylpropoxy)-1-cyclohexene-1-phosphonate]",EC50,"[2]; Influenza A virus, MDCK",4.67 nM
same,Mean day to death,[4],8.2 days and 5.9 days and 5.3 days
same,"% Survivors, day 7",[1],10 (100)^b % and 0 (60)^b % and 0 (0)^b %
same,"% Survivors, day 14",[1],10 (100)^b % and 0 (60)^b % and 0 (0)^b %
same,Mean day to death,[1],9.1 days and 8.7 days and 5.6 days and 5.7 days
same,efficacy compared with Tamiflu by survival rate and mean survival time of mice,[1],at least equally effective
same,IC50,[3],13.3 nM
same,CC50,in vitro,74000 nM
same,efficacy compared with Tamiflu by survival rate and mean survival time of mice,[5],more effective than Tamiflu
same,oral bioavailability in protecting mice against lethal challenge,[5]; po,orally bioavailable
"CCOP(=O)(OCC)C1=C[C@@H](OC(CC)CC)[C@H](NC(C)=O)[C@@H](N)C1 [Compound 3b, Diethyl (3R,4R,5S)-4-acetamido-5-amino-3-(1-ethylpropoxy)-1-cyclohexene-1-phosphonate]","% Survivors, day 7",[1],0 (100)^b % and 0 (20)^b % and 0 (0)^b %
same,"% Survivors, day 14",[1],0 (100)^b % and 0 (20)^b % and 0 (0)^b %
same,Mean day to death,[1],9.5 days and 7.3 days and 5.3 days and 4.9 days
same,"% Survivors, day 7",[5],0 (100)^b % and 0 (60)^b % and 0 (30)^b %
same,"% Survivors, day 14",[5],0 (100)^b % and 0 (60)^b % and 0 (30)^b %
"CCOP(=O)(O)C1=C[C@@H](OC(CC)CC)[C@H](NC(C)=O)[C@@H](N)C1.N [Compound 3c, Ethyl (3R,4R,5S)-4-acetamido-5-amino-3-(1-ethylpropoxy)-1-cyclohexene-1-phosphonate ammonium salt]",survival rate and body weight in comparison to compounds 3 and 13b,[4],improved survival rates and improved weight retention
same,efficacy at lower concentrations in comparison to compounds 3 and 13b,[4],equally ineffective
same,Mean day to death,[4]; ammonium salt,9.3 days and 6.2 days and 4.8 days
"CCC(CC)O[C@@H]1C=C(C(=O)O)C[C@H](NC(=N)N)[C@H]1NC(C)=O [Compound 13a, (3R,4R,5S)-4-acetamido-5-guanidinyl-3-(1-ethylpropoxy)-1-cyclohexene-1-carboxylic acid, reference compound]",EC50,"[2]; Influenza A virus, MDCK",5.6 nM
same,IC50,[3],160 nM
same,CC50,in vitro,> 100000 nM
"CCC(CC)O[C@@H]1C=C(P(=O)(O)O)C[C@H](NC(=N)N)[C@H]1NC(C)=O [Compound 13b, Ammonium (3R,4R,5S)-4-acetamido-5-guanidinyl-3-(1-ethylpropoxy)-1-cyclohexene-1-phosphonate]",EC50,"[2]; Influenza A virus, MDCK",0.09 nM
same,IC50,[3],1.82 nM
same,CC50,in vitro,~5000 nM
"CCOP(=O)(O)C1=C[C@@H](OC(CC)CC)[C@H](NC(C)=O)[C@@H](NC(=N)N)C1.N [Compound 13c, Ethyl (3R,4R,5S)-4-acetamido-5-guanidinyl-3-(1-ethylpropoxy)-1-cyclohexene-1-phosphonate ammonium salt]",survival rate and body weight in comparison to compounds 3 and 13b,[4],improved survival rates and improved weight retention
same,efficacy at lower concentrations in comparison to compounds 3 and 13b,[4],equally ineffective
same,Mean day to death,[4]; ammonium salt,6.8 days and 5.7 days
"CC(=O)N[C@H]1[C@H](O)C=C(C(=O)O)C[C@@H]1N [Compound 14a, (3R,4R,5S)-4-Acetamido-5-amino-3-hydroxy-1-cyclohexene-1-carboxylic acid, reference compound]",IC50,[6],36700 nM
same,NAI activity in comparison with 2 and 3,[6],inferior NAI activity
"CC(=O)N[C@H]1[C@H](O)C=C(P(=O)(O)O)C[C@@H]1N [Compound 14b, Ammonium (3R,4R,5S)-4-acetamido-5-amino-3-hydroxy-1-cyclohexene-1-phosphonate]",IC50,[6],3200 nM
same,NAI activity in comparison with 2 and 3,[6],inferior NAI activity
